Patent publication US6093732A, “4-hydroxyquinoline-3-carboxamides and hydrazides as antiviral agents” (Pharmacia & Upjohn Company, priority 1998, dated 2000)

Biological target: T1, HCMV polymerase (Human cytomegalovirus, UniProt P08546)
T1 construct: made in house; host or cells: recombinant baculovirus-infected SF-9 cells
Assay: HCMV polymerase scintillation proximity assay (SPA), modified version
Type: biochemical
Settings: CMV polymerase; Table 1; modified assay with 4.5 mM DTT, compounds in 100% DMSO; read-out: Antiviral Selective Polymerase IC50 Values, CMV
Protocol: The HCMV polymerase assay is performed using a scintillation proximity assay (SPA) as described in several references, such as N. D. Cook, et al., Pharmaceutical Manufacturing International, pages 49-53 (1992); K. Takeuchi, Laboratory Practice, September issue (1992); U.S. Pat. No. 4,568,649 (1986); which are incorporated by reference herein. Reactions are performed in 96-well plates. The assay is conducted in 100 μl volume with 5.4 mM HEPES (pH 7.5), 11.7 mM KCl, 4.5 mM MgCl2, 0.36 mg/ml BSA, and 90 nM ^3 H-dTTP. Assays are run with and without CHAPS, (3-[(3-Cholamidopropyl)-dimethylammonio]-1-propane-sulfonate) at a final concentration of 2 mM. HCMV polymerase is diluted in enzyme dilution buffer containing 50% glycerol, 250 mM NaCl, 10 mM HEPES (pH 7.5), 100 μg/ml BSA, and 0.01% sodium azide. The HCMV polymerase, which is expressed in recombinant baculovirus-infected SF-9 cells and purified according to literature procedures, is added at 10% (or 10 μl) of the final reaction volume, i.e., 100 μl. Compounds are diluted in 50% DMSO and 10 μl are added to each well. Control wells contain an equivalent concentration of DMSO. Unless noted otherwise, reactions are initiated via the addition of 6 nM biotinylated poly(dA)-oligo(dT) template/primer to reaction mixtures containing the enzyme, substrate, and compounds of interest. Plates are incubated in a 25° C. or 37° C. H2 O bath and terminated via the addition of 40 μl/reaction of 0.5 M EDTA (pH 8) per well. Reactions are terminated within the time-frame during which substrate incorporation is linear and varied depending upon the enzyme and conditions used, i.e., 30 min. for HCMV polymerase. Ten μl of streptavidin-SPA beads (20 mg/ml in PBS/10% glycerol) are added following termination of the reaction. Plates are incubated 10 min. at 37° C., then equilibrated to room temperature, and counted on a Packard Topcount. Linear regressions are performed and IC50 's are calculated using computer software.
A modified version of the above HCMV polymerase assay is performed as described above, but with the following changes: Compounds are diluted in 100% DMSO until final dilution into assay buffer. In the previous assay, compounds are diluted in 50% DMSO. 4.5 mM dithiotherotol (DTT) is added to the polymerase buffer. […] Other viral polymerase assays are performed using procedures similar to those described above.

T1 sequence (P08546 whole entry): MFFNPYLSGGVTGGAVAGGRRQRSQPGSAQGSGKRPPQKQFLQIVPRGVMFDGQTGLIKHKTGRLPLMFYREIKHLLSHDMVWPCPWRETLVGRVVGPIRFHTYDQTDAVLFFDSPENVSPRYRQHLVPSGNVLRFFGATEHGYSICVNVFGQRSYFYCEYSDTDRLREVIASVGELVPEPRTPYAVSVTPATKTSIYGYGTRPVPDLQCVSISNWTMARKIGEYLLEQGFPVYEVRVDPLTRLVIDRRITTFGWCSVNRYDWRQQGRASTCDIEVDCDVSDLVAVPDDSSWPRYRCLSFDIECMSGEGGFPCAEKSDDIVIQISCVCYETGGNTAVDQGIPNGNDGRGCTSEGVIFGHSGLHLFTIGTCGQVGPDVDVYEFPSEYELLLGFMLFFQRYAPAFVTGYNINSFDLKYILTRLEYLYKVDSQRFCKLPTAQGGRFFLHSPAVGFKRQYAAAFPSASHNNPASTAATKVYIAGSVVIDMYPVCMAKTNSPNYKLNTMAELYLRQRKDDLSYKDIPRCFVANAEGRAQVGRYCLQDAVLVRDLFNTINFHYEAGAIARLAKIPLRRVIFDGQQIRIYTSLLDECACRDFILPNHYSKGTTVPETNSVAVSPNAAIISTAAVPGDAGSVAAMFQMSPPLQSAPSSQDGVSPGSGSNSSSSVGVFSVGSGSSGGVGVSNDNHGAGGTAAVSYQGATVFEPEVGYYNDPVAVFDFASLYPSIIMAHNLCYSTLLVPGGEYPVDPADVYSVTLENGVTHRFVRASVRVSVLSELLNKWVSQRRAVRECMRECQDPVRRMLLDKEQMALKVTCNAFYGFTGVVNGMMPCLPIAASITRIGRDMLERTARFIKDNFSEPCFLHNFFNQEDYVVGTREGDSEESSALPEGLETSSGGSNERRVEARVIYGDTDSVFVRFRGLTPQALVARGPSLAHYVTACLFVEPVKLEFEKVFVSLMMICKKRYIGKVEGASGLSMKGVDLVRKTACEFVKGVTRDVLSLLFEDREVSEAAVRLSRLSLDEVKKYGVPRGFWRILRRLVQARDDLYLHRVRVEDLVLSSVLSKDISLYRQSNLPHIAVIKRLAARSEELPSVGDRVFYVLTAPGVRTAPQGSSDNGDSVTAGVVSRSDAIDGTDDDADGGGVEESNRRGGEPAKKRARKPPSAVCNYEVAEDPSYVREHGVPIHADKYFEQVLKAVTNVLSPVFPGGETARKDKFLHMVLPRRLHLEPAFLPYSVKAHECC

CN(CCS(=O)(=O)O)C(=O)CCCCCCC(=O)OCCCc1cc(F)c2ncc(C(=O)NCc3ccc(Cl)cc3)c(O)c2c1
IC50: 11.5 µM

CN(CCS(=O)(=O)O)C(=O)CCCCCCC(=O)OCC#Cc1ccc2ncc(C(=O)NCc3ccc(Cl)cc3)c(O)c2c1
IC50: 16.5 µM

O=C(NCc1ccc(Cl)cc1)c1cnc2c(F)cc(O)cc2c1O [Example 3, N-[(4-Chlorophenyl)methyl]-8-fluoro-4,6-dihydroxy-3-quinoline-carboxamide]
IC50: 24 µM

O=C(NCc1ccc(Cl)cc1)c1cnc2c(F)cc(Br)cc2c1O [Example 4]
IC50: 3.4 µM

O=C(NCc1ccc(Cl)cc1)c1cnc2c(F)cc(I)cc2c1O [Example 5, N-[(4-Chlorophenyl)methyl]-8-fluoro-4-hydroxy-6-iodo-3-quinolinecarboxamide]
IC50: 5.8 µM

O=C(NCc1ccc(Cl)cc1)c1cnc2cc(C(F)(F)F)cc(C(F)(F)F)c2c1O [Example 8, N-[(4-Chlorophenyl)methyl]-4-hydroxy-5,7-bis(trifluoromethyl)-3-quinolinecarboxamide]
IC50: 55.3 µM

Cc1ccc2c(O)c(C(=O)NCc3ccc(Cl)cc3)cnc2c1 [Example 11, N-[(4-Chlorophenyl)methyl]-4-hydroxy-7-methyl-3-quinoline-carboxamide]
IC50: 21.2 µM

O=C(NCc1ccc(Cl)cc1)c1cnc2c(F)ccc(F)c2c1O [Example 17, N-[(4-Chlorophenyl)methyl]-5,8-difluoro-4-hydroxy-3-quinolinecarboxamide]
IC50: 3.3 µM

O=C(NCc1ccc(Cl)cc1)c1cnc2c(F)c(F)ccc2c1O [Example 18, N-[(4-Chlorophenyl)methyl]-7,8-difluoro-4-hydroxy-3-quinoline-carboxamide]
IC50: < 3.1 µM

COc1cccc2c(O)c(C(=O)NCc3ccc(Cl)cc3)cnc12 [Example 20, N-[(4-Chlorophenyl)methyl]-4-hydroxy-8-methoxy-3-quinoline-carboxamide]
IC50: 6.5 µM

O=C(NCc1ccc(Cl)cc1)c1cnc2ccc(Cl)cc2c1O [Example 21, 6-Chloro-N-[(4-chlorophenyl)methyl]-4-hydroxy-3-quinoline-carboxamide]
IC50: 4.4 µM

Cc1ccc2ncc(C(=O)NCc3ccc(Cl)cc3)c(O)c2c1 [Example 22, N-[(4-Chlorophenyl)methyl]-4-hydroxy-6-methyl-3-quinoline-carboxamide]
IC50: 4 µM

COc1ccc2ncc(C(=O)NCc3ccc(Cl)cc3)c(O)c2c1 [Example 23, N-[(4-Chlorophenyl)methyl]-4-hydroxy-6-methoxy-3-quinoline-carboxamide]
IC50: 3.4 µM

N#Cc1ccc2ncc(C(=O)NCc3ccc(Cl)cc3)c(O)c2c1 [Example 24, N-[(4-Chlorophenyl)methyl]-6-cyano-4-hydroxy-3-quinoline-carboxamide]
IC50: 4.9 µM

CN(C)c1ccc2c(O)c(C(=O)NCc3ccc(Cl)cc3)cnc2c1 [Example 27, N-[(4-Chlorophenyl)methyl]-7-(dimethylamino)-4-hydroxy-3-quinolinecarboxamide]
IC50: 16 µM

O=C(NCc1ccc(Cl)cc1)c1cnc2cc(NS(=O)(=O)c3ccccc3)ccc2c1O [Example 33, N-[(4-Chlorophenyl)methyl]-4-hydroxy-7-[(phenylsulfonyl)-amino]-3-quinolinecarboxamide]
IC50: 24.3 µM

O=C(NCc1ccc(Cl)cc1)c1cnc2cc(NS(=O)(=O)Cc3ccccc3)ccc2c1O [Example 34, N-[(4-Chlorophenyl)methyl]-4-hydroxy-7-[[(phenylmethyl)-sulfonyl]amino]-3-quinolinecarboxamide]
IC50: 17.9 µM

O=C(NCc1ccc(Cl)cc1)c1cnc2cc(NS(=O)(=O)c3ccc(Cl)cc3)ccc2c1O [Example 35, N-[(4-Chlorophenyl)methyl]-7-[[(4-chlorophenyl)sulfonyl]amino]-4-hydroxy-3-quinolinecarboxamide]
IC50: 9.2 µM

O=C(NNc1ccc(Cl)cc1)c1cnc2c(F)cccc2c1O [Example 36, 8-Fluoro-4-hydroxy-3-quinolinecarboxylic acid 2-(4-chlorophenyl) hydrazide]
IC50: 7.8 µM

Cc1cc(F)c2ncc(C(=O)NCc3ccc(Cl)cc3)c(O)c2c1 [Example 38, N-[(4-Chlorophenyl)methyl]-8-fluoro-4-hydroxy-6-methyl-3-quinolinecarboxamide]
IC50: 3.2 µM

O=C(NCc1ccc(Cl)cc1)c1cnc2cc(I)ccc2c1O [Example 39, N-[(4-Chlorophenyl)methyl]-4-hydroxy-7-iodo-3-quinolinecarboxamide]
IC50: < 3.1 µM

O=C(NCc1ccc(Cl)cc1)c1cnc2ccc(I)cc2c1O [Example 40, N-[(4-Chlorophenyl)methyl]-4-hydroxy-6-iodo-3-quinoline-carboxamide]
IC50: 3.5 µM

N#CCc1ccc2ncc(C(=O)NCc3ccc(Cl)cc3)c(O)c2c1 [Example 41, N-[(4-Chlorophenyl)methyl]-6-(cyanomethyl)-4-hydroxy-3-quinolinecarboxamide]
IC50: 12.1 µM

O=C(NCc1ccc(Cl)cc1)c1cnc2cccc(O)c2c1O [Example 42, N-[(4-Chlorophenyl)methyl]-4,5-dihydroxy-3-quinolinecarboxamide]
IC50: 19.2 µM

O=C(NCc1ccc(Cl)cc1)c1cnc2c(Cl)c(Cl)ccc2c1O [Example 43, 7,8-Dichloro-N-[(4-chlorophenyl)methyl]-4-hydroxy-3-quinolinecarboxamide]
IC50: 1.3 µM

O=C(NCc1ccc(Cl)cc1)c1cnc2ccc(O)cc2c1O [Example 44, N-[(4-Chlorophenyl)methyl]-4,6-dihydroxy-3-quinoline-carboxamide]
IC50: 28.7 µM

O=C(NCc1ccc(Cl)cc1)c1cnc2c(O)cccc2c1O [Example 45, N-[(4-Chlorophenyl)methyl]-4,8-dihydroxy-3-quinoline-carboxamide]
IC50: 4.6 µM

O=C(NCc1ccc(Cl)cc1)c1cnc2c(Cl)cccc2c1O [Example 46, 8-Chloro-N-[(4-chlorophenyl)methyl]-4-hydroxy-3-quinolinecarboxamide]
IC50: 2.8 µM

O=C(NCc1ccc(Cl)cc1)c1cnc2ccc(S(=O)(=O)Nc3ccnn3-c3ccccc3)cc2c1O [Example 47, N-[(4-Chlorophenyl)methyl]-4-hydroxy-6-[[(1-phenyl-1H-pyrazol-5-yl)amino]sulfonyl]-3-quinolinecarboxamide]
IC50: 39.7 µM

N#Cc1cccc2c(O)c(C(=O)NCc3ccc(Cl)cc3)cnc12 [Example 48, N-[(4-Chlorophenyl)methyl]-8-cyano-4-hydroxy-3-quinoline-carboxamide]
IC50: 6.5 µM

O=C(NCc1ccc(Cl)cc1)c1cnc2c([N+](=O)[O-])cccc2c1O [Example 49, N-[(4-Chlorophenyl)methyl]-4-hydroxy-8-nitro-3-quinoline-carboxamide]
IC50: 3.7 µM

Cc1c(N)ccc2c(O)c(C(=O)NCc3ccc(Cl)cc3)cnc12 [Example 50, 7-Amino-N-[(4-chlorophenyl)methyl]-4-hydroxy-8-methyl-3-quinolinecarboxamid]
IC50: 6.9 µM

N#Cc1cc(F)c2ncc(C(=O)NCc3ccc(Cl)cc3)c(O)c2c1 [Example 51, N-[(4-Chlorophenyl)methyl]-6-cyano-8-fluoro-4-hydroxy-3-quinolinecarboxamide]
IC50: 12.2 µM

NC(=S)c1cc(F)c2ncc(C(=O)NCc3ccc(Cl)cc3)c(O)c2c1 [Example 52, 6-(Aminothioxomethyl)-N-[(4-chlorophenyl)methyl]-8-fluoro-4-hydroxy-3-quinolinecarboxamide]
IC50: 11 µM
